# Source: patent publication US10583124B2, “Wild bird treatment composition and methods” (priority 2016, dated 2020)
# Like-named read-outs stand apart in the source and are kept apart here.
# Key:
# [1] = assay type: physicochemical; settings: in acetonitrile, positive control, 1 hour
# Method: Composition 10 was exposed to elevated temperature (75° C.) for 1 hour to determine if fenbendazole inside composition 10 was being protected from the effects of high temperature. Control composition 10 was left at room temperature for the same time period. Additionally, 100 ppm fenbendazole in acetonitrile was used as a positive control and exposed to the same conditions (room and elevated temperature for 1 hour).
# [2] = as long as protected from photo oxidation; cited from earlier work
compound,measurement,setting,value
COC(=O)Nc1nc2ccc(Sc3ccccc3)cc2[nH]1 [fenbendazole],Fenbendazole extracted from 100 ppm fenbendazole solution,[1]; 21 °C (room temperature),115.18 ppm
same,Fenbendazole extracted from 100 ppm fenbendazole solution,[1]; 75 °C,93.36 ppm
same,humidity range in which stable,[2],10-100%
same,temperature range in which stable,[2],4.4-37.7 °C
